Measured values as given in patent US7906486B2, “Method of treating or preventing tissue deterioration, injury or damage due to disease of mucosa” (SciClone Pharmaceuticals, Inc., priority 2007, dated 2011).
“And” between values parts separate entries of the source, which are not always exact repeats. Identical values can stand only once.

Tested on: oral mucositis induced by cis-platin 5 mg/kg and radiation 35 Gy (left cheek pouch)
Experiment: Oral mucositis induced by a combination of cisplatin and acute radiation in hamsters, mucositis scoring (Example 4, SCI-04)
Type: in vivo, Syrian Golden Hamsters
Design: key: 0: Pouch completely healthy. No erythema or vasodilation.; 1: Light to severe erythema and vasodilation. No erosion of mucosa.; 2: Severe erythema and vasodilation. Erosion of superficial aspects of mucosa leaving denuded areas. Decreased stippling of mucosa.; 3: Formation of off-white ulcers in one or more places. Ulcers may have a yellow/gray due to pseudomembrane. Cumulative size of ulcers should equal about ¼ of the pouch. Severe erythema and vasodilation.; 4: Cumulative seize of ulcers should equal about ½ of the pouch. Loss of pliability. Severe erythema and vasodilation.; 5: Virtually all of pouch is ulcerated. Loss of pliability (pouch can only partially be extracted from mouth)
Details: Group 2 (SCV-07 10 μg/kg, day -1 to day 20), individual animal scores, two scores per animal
Procedure: Forty Golden Syrian hamsters were prospectively randomized into four equally sized groups. Mucositis was induced on the left cheek pouch mucosa of golden Syrian hamsters by a single dose of cis-platin at 5 mg/kg given on day −1, and a single dose of radiation administered on day 0 at a dose of 35Gy. Beginning on day −1 and continuing once daily until day 20, SCV-07 was given by sub-cutaneous injection at doses of 10 μg/kg, 100 μg/kg or 1 mg/kg in a volume of 100 μL. Animals' activity and weight were evaluated daily. Beginning on day 6 and continuing on alternate days for the duration of the study, oral mucositis was evaluated using a standard scoring six point scale. The number of days of ulcerative mucositis was evaluated using a Chi-squared test of scores of ≧3 throughout the study, and the individual daily group scores were assessed with a Rank Sum Test.
The chemo-radiation model of oral mucositis in hamsters, developed by the Principal Investigator, has proven to be an accurate, efficient and cost-effective technique to provide a preliminary evaluation of anti-mucositis compounds. In this model, hamsters received a single dose of cis-platin at 5 mg/kg on day −1, followed by a single dose of radiation of 35 Gy to the left cheek pouch on day 0, rather than the single dose of 40 Gy on day 0 that is used in acute radiation studies. The course of mucositis in this model is very similar to the acute radiation model and results in peak mucositis scores approximately 16-18 days following radiation.
Hamsters received a single dose of cis-platin at 5 mg/kg on day −1 by intra-peritoneal injection, followed by a single dose of radiation of 35 Gy to the left cheek pouch on day 0. This was accomplished by anesthetizing the animals and everting the left buccal pouch, while protecting the rest of the animal's bodies with a lead shield. Test materials were given by sub-cutaneous injection once daily as detailed in Table 13. Mucositis was evaluated clinically starting on day 6, and continuing on alternate days until day 28. Test articles were given as from day −1 to day 20.
The grade of mucositis was scored, beginning day 6, and for every second day thereafter, through and including day 28. The effect on mucositis of each drug treatment compared to placebo was assessed according to the following parameters:
On each evaluation day, the number of animals with a blinded mucositis score of ≧3 in each drug treatment group was compared to the control group. Differences were compared on a cumulative basis and statistical significance was determined by chi-square analysis. Efficacy, in this analysis, is defined by a significant reduction in the number of days that a group of animals had ulcerations (scores 3) when compared to the control group.
For each evaluation day the scores of the control group were compared to those of the treated groups using non-parametric rank sum analysis. Treatment success was considered as a statistically significant lowering of scores in the treated group on 2 or more days from day 6 to day 28.
Forty (40) male Syrian Golden Hamsters were given an intraperitoneal injection of 5 mg/kg Cisplatin on day −1. On day 0 all animals were given an acute radiation dose of 35 Gy directed to their left buccal cheek pouch. This was accomplished by anesthetizing the animals and everting the left buccal pouch, while protecting the rest of the animals with a lead shield. Test materials were given by subcutaneous injection once daily as detailed in Table 13. Mucositis was evaluated clinically starting on Day 6, and continued on alternate days until day 28.
In this study, mucositis was induced with a combination of Cis-platin and radiation. Cis-platin was given as a single injection (IP) of 5 mg/kg on day −1. Radiation was given as a single focal dose of 35 Gy on day 0. Radiation was generated with a Philips 160 kVp (kilovolt potential) (18.75-ma) X-ray source at a focal distance of 30 cm, with a 3.0 mm hardened Al filtration system. […]

N[C@H](CCC(=O)N[C@@H](Cc1c[nH]c2ccccc12)C(=O)O)C(=O)O [SCV-07, γ-D-glutamyl-L-tryptophan]
Mucositis score, day 10 (day 10): 1
Mucositis score, day 12 (day 12): 3
Mucositis score, day 14 (day 14): 3
Mucositis score, day 16 (day 16): 3 (14×) and 4 (2×)
Mucositis score, day 18 (day 18): 3 (12×) and 4 (2×)
Mucositis score, day 20 (day 20): 3 (12×) and 1
Mucositis score, day 22 (day 22): 1 (4×) and 3 (8×)
Mucositis score, day 24 (day 24): 1 (5×) and 3 (4×)
Mucositis score, day 26 (day 26): 1 (11×) and 3 (4×)
Mucositis score, day 28 (day 28): 0 (7×) and 1 (8×) and 3 (2×)
